Experimental findings from ChEMBL document CHEMBL1240451, “Studies on chemical modification and biology of a natural product, gambogic acid (II): Synthesis and bioevaluation of gambogellic acid and its derivatives from gambogic acid as antitumor agents” (Eur J Med Chem, 2010) are described below.

As a reminder, the IC50 is the concentration needed to halve the response being measured. High values mean weaker potency in that assay, low ones greater potency in that assay.

Active and inactive are the calls of the source. The rule behind the calls is not given here. Bounds are passed on as bounds.

The test system of test [1] is A549. As to the kind of experiment: cells. The settings on record: Homo sapiens, A549, 48 h.
Description: Cytotoxicity against human A549 cells after 48 hrs by MTT assay
Test [2] concerns BGC-823. As to the kind of experiment: Cytotoxicity against human BGC823 cells after 48 hrs by MTT assay. Format: functional, cell-based. Conditions: BGC-823, 48 h. A general note: Tetrazolium dyes change colour on reduction, which living cells bring about.
The test system of test [3] is BGC-823. The experiment in a line: Ratio of compound IC50 to gambogic acid IC50 for human BGC823 cells. The format is functional.
Test [4] deals with HT-29. The experiment in a line: Ratio of compound IC50 to gambogic acid IC50 for human HT-29 cells. Format: functional.
Test [5] has as its system HT-29. The experiment in a line: Cytotoxicity against human HT-29 cells after 48 hrs by MTT assay. The format is functional, cell-based. Conditions: HT-29, 48 h.
Test [6] relates to Bel-7402. The experiment in a line: Cytotoxicity against human Bel7402 cells after 48 hrs by MTT assay. Format: functional, cell-based. The settings on record: Bel-7402, 48 h.
For test [7], the system named is A549. The experiment in a line: Ratio of compound IC50 to gambogic acid IC50 for human A549 cells. Format: functional.
For test [8], the system named is BGC-823. The experiment in a line: Induction of apoptosis human BGC823 cells assessed as increase of apoptotic cells at 4 uM after 20 hrs using Annexin-V/PI double-staining by flow cytometry (reference value: 3.9%). The format is functional. Background: In flow cytometry, cells or beads pass a laser one at a time.
Test [9] relates to BGC-823. As to the kind of experiment: Induction of apoptosis human BGC823 cells assessed as increase of apoptotic cells after 20 hrs using Annexin-V/PI double-staining by flow cytometry (reference value: 3.9%). Format: functional, cell-based.
Test [10] deals with Bel-7402. As to the kind of experiment: Ratio of compound IC50 to gambogic acid IC50 for human Bel7402 cells. The format is functional.
Test [11] deals with BGC-823. The experiment in a line: Induction of apoptosis human BGC823 cells assessed as increase of apoptotic cells at 8 uM after 20 hrs using Annexin-V/PI double-staining by flow cytometry (reference value: 3.9%). The format is functional.
The subject of test [12] is BGC-823. The experiment in a line: Induction of apoptosis human BGC823 cells assessed as increase of apoptotic cells at 2 uM after 20 hrs using Annexin-V/PI double-staining by flow cytometry (reference value: 3.9%). Format: functional.
Test [13] concerns BGC-823. As to the kind of experiment: Induction of apoptosis human BGC823 cells assessed as nuclear fragmentation at up to 8 uM after 20 hrs using Annexin-V/PI double-staining by light microscopic analysis. The format is functional, cell-based.
Test [14] deals with BGC-823. As to the kind of experiment: Induction of apoptosis human BGC823 cells assessed as morphological changes at up to 8 uM after 48 hrs using Annexin-V/PI double-staining by light microscopic analysis. Format: functional, cell-based.

`C=C(C)C1CC[C@]2(C)CC1c1c(O)c3c(c(C/C=C(\C)CO)c1O2)O[C@]12C(=C[C@@H]4C[C@@H]1C(C)(C)O[C@@]2(C/C=C(/C)C(=O)OC)C4=O)C3=O` (some centres undefined): the IC50 in test [1] was found to be 980 nM; in [2], 620 nM; in test [5] it was 240 nM; in test [6], 13000 nM. For the same compound, the “Ratio IC50” value in test [3] came out at 2; in [4], 14; in [7], 2.

On to `C=C(C)C1CC[C@]2(C)CC1c1c(O)c3c(c(CCC(C)(C)Cl)c1O2)O[C@]12[C@@H]4C[C@H](C(=O)[C@]1(C/C=C(/C)C(=O)O)OC4(C)C)C(O)C2(O)C3=O` (some centres undefined), for which the IC50 in test [1], in test [2], in test [5] and in test [6] was > 100000 nM throughout.

Regarding `COC(=O)/C(C)=C\C[C@@]12OC(C)(C)[C@H]3C[C@@H](C=C4C(=O)c5c(O)c6c(c(CC=C(C)C)c5O[C@]431)O[C@]1(C)CCC(=C(C)C)C6C1)C2=O`, the IC50 was 5550 nM in [1], 6620 nM in test [2], 540 nM in [5] and 7860 nM in test [6]. Further, in test [4], the “Ratio IC50” value is 4.

With `COC(=O)/C(C)=C\C[C@@]12OC(C)(C)[C@H]3C[C@@H](C=C4C(=O)c5c(O)c6c(c(CC=C(C)C)c5O[C@]431)O[C@]1(C)CCC(C3(C)CO3)C6C1)C2=O` (some centres undefined), the IC50 worked out at 2420 nM in test [1], 920 nM in test [2], 490 nM in test [5] and 4380 nM in test [6]. Moreover, the entries for the “Ratio IC50” value in test [3] and in [4] were 2 and 4, respectively.

With `C=C(C)C1CC[C@]2(C)CC1c1c(O)c3c(c(CCC(C)(C)Cl)c1O2)O[C@]12C(=C[C@@H]4C[C@@H]1C(C)(C)O[C@@]2(C/C=C(/C)C(=O)OC)C4=O)C3=O` (some centres undefined), the IC50 in test [1] was 4630 nM; in test [2], 1980 nM; in [5], 4550 nM; in [6], 2630 nM. Besides, the “Ratio IC50” value in test [3] came out at 2.

As for `C/C(=C/C[C@@]12OC(C)(C)[C@H]3C[C@@H](C=C4C(=O)c5c(O)c6c(c(CCC(C)(C)Cl)c5O[C@]431)O[C@]1(C)CC(=O)C(C(C)C)C6C1)C2=O)C(=O)O` (some centres undefined), the IC50 in test [1] stood at 27600 nM; in test [2], 2930 nM; in test [5], 5600 nM; in test [6], 4120 nM.

With `C=C(C)C1CC[C@]2(C)CC1c1c(O)c3c(c(CC=C(C)C)c1O2)O[C@]12C(=C[C@@H]4C[C@@H]1C(C)(C)O[C@@]2(C/C=C(/C)C(=O)O)C4=O)C3=O` (some centres undefined) [GAMBOGELLIC ACID], the IC50 stood at 1120 nM in [1], 460 nM in test [2], 1340 nM in test [5] and 6480 nM in test [6]. The “Ratio IC50” value in test [7] turned out to be 2.

For `CC(C)=CCC[C@]1(C)C=Cc2c(O)c3c(c(CC=C(C)C)c2O1)O[C@]12C(=C[C@@H]4C[C@H]1C(C)(C)O[C@@]2(C/C=C(/C)C(=O)O)C4=O)C3=O` [GAMBOGIC ACID], the IC50 in [1] was determined as 3650 nM; in test [2], 2830 nM; in test [5], 3520 nM; in [6] it was 2080 nM.

As for `C/C(=C/C[C@@]12OC(C)(C)[C@H]3C[C@@H](C=C4C(=O)c5c(O)c6c(c(CCC(C)(C)Cl)c5O[C@]431)O[C@]1(C)CCC(C3(C)CO3)C6C1)C2=O)C(=O)O` (some centres undefined), the IC50 in test [1] was 3180 nM; in [2] it was 280 nM; in [5], 1330 nM; in test [6], 440 nM. Further, the Activity in test [8] was 6.2%; in test [9] it was “Dose-dependent effect”; in [11], 25.7%; in test [12], 4.2%. Further, the “Ratio IC50” value in [10] is 4.7. Besides, the outcome in [13] and in test [14] was Active.

For `C=C(C)C1CC[C@]2(C)CC1c1c(O)c3c(c(CCC(C)(C)Cl)c1O2)O[C@]12C(=C[C@@H]4C[C@@H]1C(C)(C)O[C@@]2(C/C=C(/C)C(=O)O)C4=O)C3=O` (some centres undefined), the IC50 turned out to be 1240 nM in test [1], 4000 nM in [2], 1640 nM in [5] and 18100 nM in [6]. Moreover, in test [7], the “Ratio IC50” value is 2.

On to `C=C(C)C1CC[C@]2(C)CC1c1c(O)c3c(c(CC=C(C)C)c1O2)O[C@]12C(=C[C@@H]4C[C@@H]1C(C)(C)O[C@@]2(C/C=C(/C)C(=O)OC)C4=O)C3=O` (some centres undefined), for which the IC50 in test [1] amounted to 1790 nM; in test [2], 2610 nM; in test [5] it was 810 nM; in test [6], 4560 nM. In addition, the “Ratio IC50” value in test [4] came out at 4; in test [7], 2.

For `COC(=O)/C(C)=C\C[C@@]12OC(C)(C)[C@H]3C[C@@H](C=C4C(=O)c5c(O)c6c(c(CC7OC7(C)C)c5O[C@]431)O[C@]1(C)CCC(=C(C)C)C6C1)C2=O` (some centres undefined), the IC50 in [1] is 2340 nM; in test [2] it was 2530 nM; in [5], 120 nM; in [6] it was 8100 nM. For the same compound, in test [4], the “Ratio IC50” value was 14.

With `COC(=O)/C(C)=C\C[C@@]12OC(C)(C)[C@H]3C[C@@H](C=C4C(=O)c5c(O)c6c(c(C/C=C(\C)CO)c5O[C@]431)O[C@]1(C)CCC(=C(C)C)C6C1)C2=O`, the IC50 is 1560 nM in [1], 1420 nM in test [2], 140 nM in test [5] and 11000 nM in [6]. The “Ratio IC50” value in test [3] worked out at 2; in [4] it was 14; in test [7], 2.
